In patent US11324832B2, “Tripartite modulators of endosomal G protein-coupled receptors” (Endosome Therapeutics, Inc., priority 2015, dated 2022):
pIC50: −log10 of the molar value. Where a SMILES comes first, the peptide text is derived from it. Where no end group is shown, it is not given here. [ ]: non-standard residue; d: D form.

Experiments:
[1] = Stability in human cerebrospinal fluid; type: in vitro ADME; settings: Example 2, expected
Method: (§1) To assess stability in cerebrospinal fluid, spantide or Compound 1 (10 μg/ml) was incubated in human cerebrospinal fluid (0-4 h, 37° C.), and then snap frozen. Proteins were precipitated using ACN. To assess stability in the spinal cord, spantide or Compound 1 was injected intrathecally to mice (10 μM, 5 μl, L3/L4). After 3 hours, a spinal cord segment 5 mm on either side the injection site was removed and snap frozen. Tissues were crushed with a glass rod in a mixture of methanol (30 μl) and EDTA/KF (60 μl, 0.1 M EDTA, 4 g/l KF), vortexed and centrifuged to remove lipids. Peptides were extracted from the pellet with 0.5% formic acid in 75% ACN/H2O (100 μl). Samples were analyzed assayed by LC/MS using a Waters Xevo TQ or TQD triple quadrupole mass spectrometer coupled to a Waters UPLC. Peptides were separated by HPLC (Supelco Ascentis Express Peptide ES C18 column, 50×2.1 mm, 2.7 μm) with 0.05% formic acid in H2O and ACN as solvents. Peptides were quantified by comparison to calibration standards (50-50,000 ng/ml).

NK1R = NK1R (Rattus norvegicus, UniProt P14600); assay: SP-stimulated Ca2+ signaling in HEK-NK1R cells, antagonist mode; type: cell-based; design: Full length and truncated 6312 rat HA-NK1R have been described; expressed in transfected cells; host or cells: HEK293 (transient)
Method: [Ca^2+]i was measured as described (Jensen, D. D. et al., J Biol Chem, 2014, 289, 20283-20294). HEK293 cells transiently expressing HA-NK1R or HA-CLR/Myc-RAMP1 were loaded with Fura2-AM (2 μM).

[2] = Stability in the spinal cord after intrathecal injection to mice; type: in vivo, mouse; settings: 10 μM, 5 μl, spinal cord after 3 hours
Method: as §1

[3] = tested on: NK1R-positive neurons in lamina I of the dorsal horn; assay: Cell-attached patch clamp recordings in rat spinal cord slices; type: cell-based; settings: SP 1 μM, 2 min
Method: To evaluate whether NK1R endosomal signaling mediates this sustained activation, cell-attached patch clamp recordings were made from NKiR-positive neurons in lamina I of the dorsal horn in slices of rat spinal cord. […] These findings support a role for NK1R endocytosis in persistent neuronal excitation.
Parasagittal slices (340-400 μm) were prepared using a vibratome from the lumbar region of the rat spinal cord in ice-cold sucrose-based artificial CSF (sACSF) (mM: 100 sucrose, 63 NaCl, 2.5 KCl, 1.2 NaH2PO4, 1.2 MgCl2, 25 glucose, 25 NaHCO3; 95% O2/5% CO2). Slices were transferred to N-Methyl-D-Glucamine (NMDG)-based recovery ACSF (rACSF) (mM: 93 NMDG, 93 HCl, 2.5 KCl, 1.2 NaH2PO4, 30 NaHCO3, 20 HEPES, 25 glucose, 5 Na ascorbate, 2 thiourea, 3 Na pyruvate, 10 MgSO4, 0.5 CaCl2; 95% O2/5% CO2, 15 min, 34° C.). Slices were transferred to normal ACSF (mM: 125 NaCl, 2.5 KCl, 1.25 NaH2PO4, 1.2 MgCl2, 2.5 CaCl2, 25 glucose, 11 NaHCO3; 95% O2/5% CO2) containing 10 μM MK-801 (45 min, 34° C.), then maintained at RT.
Slices of rat spinal cord were transferred to a recording chamber and superfused with normal ACSF (2 ml·min^−1, 36° C.). […] PS2 was not soluble in the low concentrations of DMSO required for electrophysiology. Large, NKiR-positive, presumed nociceptive lamina I neurons were visually identified as described (Imlach, W. L., et al., Molecular Pharmacology, 2015, 88, 460-428). Spontaneous currents were recorded in cell-attached configuration (Multiclamp 700B, Molecular Devices, Sunnyvale, Calif.), sampled at 10 kHz, high pass filtered at 1 Hz, and capacitatively coupled action potential events were analyzed using Axograph X, V 1.4.4 (Axograph). Patch electrodes (resistance 2.5-3.5 MQ) contained KMES-based internal solution (mM: 105 KMES, 20 NaCl, 5 HEPES, 10 BAPTA, 1.5 MgCl2, 4 MgATP, 0.4 NaGTP, 0.1% biocytin; 285-295 mosmol·l^−1) to facilitate subsequent recordings of action potential properties in whole-cell configuration. Recordings were made in the presence of CNQX (6-cyano-7-nitroquinoxaline-2,3-dione) (10 μM; AMPA/kainate receptor antagonist), picrotoxin (100 μM; GABAA receptor antagonist), strychnine (0.5 μM; glycine and acetylcholine receptor antagonist), and AP5 ((2R)-amino-5-phosphonovaleric acid; (2R)-amino-5-phosphonopentanoate) (100 μM; NMDA receptor antagonist) to minimize presynaptic influences on action potential properties. […] Recordings were sampled at 10 kHz and filtered with a high pass filter at 1 Hz and firing rate was measured in two-minute interval bins. At the end of each cell-attached recording, whole-cell recordings were made in current-clamp mode to confirm retention of normal action potential firing. Data were only included in the analysis if cells had action potential amplitudes that were ≥50 mV above threshold to ensure viable neurons were included. Cells were filled with biocytin and sections were processed to confirm NK1R expression by immunofluorescence. […] The firing time was determined as the duration of the response to last action potential. To assess synaptic transmission, whole-cell configuration recordings were made under control conditions or after exposure to Dy4 or Dy4 inact; a bipolar stimulating electrode was placed at the dorsal root entry zone, and electrically-evoked excitatory postsynaptic currents recorded as described (Imlach, W. L., et al., Molecular Pharmacology, 2015, 88, 460-428).

Gαq = assay: BRET of Gαq activation and trafficking in HEK293 cells; type: cell-based; settings: SP 0.1-10 nM, 15 min
Method: Since PKC and cAMP signaling via GPCRs depends on heterotrimeric G-proteins, the capacity of SP to activate G-proteins in endosomes of HEK293 cells was examined. BRET was used to determine the proximity of the NK1R and Gαq to Rab5a and Gγ2. SP (0.1-10 nM) decreased NK1R-RLuc8/KRas-Venus BRET, which mirrored the increase in NK1R-RLuc8/Rab5a-Venus BRET (FIG. 3A, B). […] Immunofluorescence and super-resolution microscopy were used to determine whether Gαq co-localized with the NK1R at the plasma membrane or in endosomes of HEK-NK1R cells. After incubation with SP (10 nM) at 4° C., NK1R immunoreactivity (NK1R-IR) and Gαq-IR were colocalized at the plasma membrane. After washing and warming to 37° C. for 15 min, NK1R-IR and Gαq-IR were co-localized with early endosomal antigen 1 (EEA1) (data not shown). Thus, SP activates this G protein complex by its dissociation and recruits Gαq to endosomes.
HEK293 cells were transfected with the following cDNAs: 1 μg NK1R-RLuc8 or 1 μg CLR-RLuc8+1 μg Myc-RAMP1+4 μg KRas-Venus, 4 μg Rab5a-Venus, 4 μg βarr1-YFP, or 4 μg βarr2-YFP; or 1 μg NK1R+0.5 μg Gαq-RLuc8+1 μg Gβ1+4 μg Gγ2-Venus; or 1 μg NK1R+0.5 μg Gαq-RLuc8+1 μg Gβ1+1 μg Gγ2+4 μg Rab5a-Venus. […] BRET ratios were determined using a microplate reader LUMIstar Omega (BMG LabTech) before and after challenge with SP (0.1-10 nM) or vehicle (dH2O).

Chain of NK1R (P14600 whole entry, the tested form may be a part): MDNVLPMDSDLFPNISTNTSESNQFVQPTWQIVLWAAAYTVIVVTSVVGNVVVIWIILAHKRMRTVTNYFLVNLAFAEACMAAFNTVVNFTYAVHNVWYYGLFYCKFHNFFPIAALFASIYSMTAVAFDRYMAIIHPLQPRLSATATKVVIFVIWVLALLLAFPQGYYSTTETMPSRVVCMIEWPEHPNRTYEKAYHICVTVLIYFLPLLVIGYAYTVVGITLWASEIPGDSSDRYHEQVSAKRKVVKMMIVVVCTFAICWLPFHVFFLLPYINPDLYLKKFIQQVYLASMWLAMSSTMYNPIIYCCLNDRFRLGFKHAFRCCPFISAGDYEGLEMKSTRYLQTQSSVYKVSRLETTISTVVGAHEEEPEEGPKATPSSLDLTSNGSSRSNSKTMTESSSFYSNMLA

Compound	time stable in human CSF [1]	pIC50 (NK1R)	stability after intrathecal injection to mice [2]	firing of action potentials [3]	Gαq-RLuc8/Gγ2-Venus BRET (Gαq)	Gαq-RLuc8/Rab5a-Venus BRET (Gαq)
CC(C)C[C@H](NC(=O)[C@H](CC(C)C)NC(=O)[C@@H](Cc1c[nH]c2ccccc12)NC(=O)[C@H](Cc1ccccc1)NC(=O)[C@@H](Cc1c[nH]c2ccccc12)NC(=O)[C@H](CCC(N)=O)NC(=O)[C@H](CCC(N)=O)NC(=O)[C@@H]1CCCN1C(=O)[C@H](CCCCN)NC(=O)[C@@H]1CCCN1C(=O)[C@H](N)CCCN=C(N)N)C(N)=O [spantide, ^DArg-Pro-Lys-Pro-Gln-Gln-^DTrp-Phe-^DTrp-Leu-Leu-NH2] (H-[dR]PKPQQ[dW]F[dW]LL-NH2)	> 4 h	8.23	extensively metabolized	–	–	–
SP: substance P, NK1R agonist used as stimulus (RPKPQQFFGLM-NH2; ends and bridges not checked; UniProt P20366 58-68, looked up)	–	–	–	triggered a rapid onset firing of action potentials that was sustained after washout	decreased Gαq-RLuc8/Gγ2-Venus BRET	increased Gαq-RLuc8/Rab5a-Venus BRET
